In paper PMC11589570, “Critical assessment of LC3/GABARAP ligands used for degrader development and ligandability of LC3/GABARAP binding pockets” (Nature Communications, 2024):
Values joined by “and” are separate entries in the source; they are usually repeats but may differ in a detail not shown here. Equal values may be shown once.

Experiments:
LC3B [1] = molecular target: T1, LC3B (Homo sapiens, UniProt Q9GZQ8); assay: FP assay with Cy5-labelled p62 LIR tracer (protein titration and tracer displacement); type: binding; settings: for normalized FP signal, p62 LIR tracer displacement: LC3B; for compound titration LC3B (displacement curve, FP signal): two replicate columns per compound
LC3A [2] = molecular target: T2, LC3A (Homo sapiens, UniProt Q9H492); assay: Spectral shift assay (Dianthus), cysteine-labelled protein; type: binding; settings: Repeat 1 and Repeat 2, listed as 10O5 (4)
Method: Affinity determination using spectral shift mode on Dianthus: To determine dissociation constants, the Dianthus instrument (NanoTemper Technologies GmbH, Germany) was used to monitor molecular interactions. […] Protein was labelled with RED-maleimide 2nd Generation (cat# MO-L014; NanoTemper Technologies GmbH). Labeling was carried out following the manufacturer protocol, using a 3:1 ratio dye:protein. […] Protein was purified in 30 mM HEPES, 100 mM NaCl, 0.05% Tween, pH 7.5. […] Measurements were performed in spectral shift mode with an LED excitation power of 100%. Data were analyzed using the DI.Screening Analysis Software (v.2.0.4) (NanoTemper Technologies GmbH, Germany) and quality criteria values including Δ Ratio, Signal-to-Noise-Ratio, Fit Saturation and KD values were determined.

LC3A [3] = molecular target: T2, LC3A; assay: FP assay with 10O5- and 8F20-based dye-linked tracers 16 and 17; settings: LC3A; compound 3 for tracer 17, compound 4 for tracer 16
From the text: (§2) The only experimental difference in our FP assay setup was the addition of 0.05% Tween-20, which is routinely used[27] to suppress unspecific binding of compounds to proteins.
(§3) Fluorescence polarization assay utilizing tracers 16 and 17 for interaction studies with LC3A
(§4) (upper panels) and LC3B (lower panels). The left panels depict protein titration measurements
(§5) detergent in the buffer to suppress unspecific binding. Middle panels depict displacement
Data were collected in technical
(§6) triplicates with error bars expressing the SD (n=3).

[4] = tested on: LC3/GABARAPs (human Atg8 family); assay: FP assay with Cy5-labelled p62 LIR tracer, statements on all LC3/GABARAPs; type: binding
LC3A [5] = molecular target: T2, LC3A; assay: FP assay with Cy5-labelled p62 LIR tracer (protein titration and tracer displacement); type: binding; settings: for normalized FP signal, p62 LIR tracer displacement: LC3A
[6] = molecular target: T3, NanoLuc-fusion full-length LC3B (Homo sapiens, UniProt Q9GZQ8); assay: NanoBRET cellular target engagement assay in HEK293T cells; type: cell-based; settings: LC3B; 1 µM tracer; compound 4 for tracer 16, compound 3 for tracer 17
T3 construct: a fluorescent donor (in this case full length LC3A and LC3B); expressed in transfected cells; host or cells: HEK293T (ATCC; CRL-11268)
Method: (§1) NanoBRET cellular target engagement assay: Constructs contained the cDNA of full-length LC3A and LC3B cloned in frame with an N-terminal NanoLuc-fusion. Plasmids were transfected into HEK293T (ATCC; CRL-11268) cells using FuGENE HD (Promega, E2312) and proteins were allowed to express for 20 h. 10O5 and 8F20-based tracers were titrated to the protein as depicted in Supplementary Fig. 4d. For competition experiments, 1 µM of the tracers was pipetted into white 384-well plates (Greiner 781 207) using an Echo 550 acoustic dispenser (Labcyte) containing LC3A/LC3B expressing transfected cells at a density of 2.5 × 10^5 cells/mL in Opti-MEM without phenol red (Life Technologies). The system was allowed to equilibrate for 2 h at 37 °C and 5% CO2 prior to BRET measurements. To measure BRET, NanoBRET NanoGlo Substrate + Extracellular NanoLuc Inhibitor (Promega, N2540) was added as per the manufacturer’s protocol, and filtered luminescence was measured on a PHERAstar plate reader (BMG Labtech) equipped with a luminescence filter pair (450 nm BP filter (donor) and 610 nm LP filter (acceptor)). Competitive displacement data were then plotted using GraphPad Prism 9.3 software using a normalized 3-parameter curve fit. A detailed step-by-step protocol for this assay is described in Schwalm..

[7] = molecular target: T4, NanoLuc-fusion full-length LC3A (Homo sapiens, UniProt Q9H492); assay: as above; type: cell-based; settings: LC3A; 1 µM tracer; compound 4 for tracer 16, compound 3 for tracer 17
T4 construct: a fluorescent donor (in this case full length LC3A and LC3B); expressed in transfected cells; host or cells: HEK293T (ATCC; CRL-11268)
Method: as §1

LC3B [8] = molecular target: T1, LC3B; assay: FP assay with 10O5- and 8F20-based dye-linked tracers 16 and 17; settings: LC3B; compound 3 for tracer 17, compound 4 for tracer 16
From the text: as §2, §3, §4, §5
Data were collected in technical
as §6

[9] = Cell viability measurements; type: cell-based; parameters: Cell viability: scale not given here; settings: two replicate columns; for Cell viability: listed as 10O5
From the text: 1 Source data for Supplementary Fig. 8a-f are provided as a Source Data file.

[10] = log10 concentration [M] -3.82391
[11] = log10 concentration [M] -4.1549
[12] = log10 concentration [M] -4.60206
[13] = log10 concentration [M] -5.30103
[14] = log10 concentration [M] -5.69897
[15] = log10 concentration [M] -6.22185
[16] = log10 concentration [M] -6.69897
[17] = log10 concentration [M] -7.30103
[18] = log10 concentration [M] -7.79588
[19] = log10 concentration [M] -8.08092

O=C1Nc2ccc(I)cc2C1=Cc1cc(Br)c(O)c(Br)c1 [compound 4]
normalized FP signal, p62 LIR tracer displacement (LC3B [1]; [10]): 84.7368
normalized FP signal, p62 LIR tracer displacement (LC3B [1]; [11]): 89.2105
normalized FP signal, p62 LIR tracer displacement (LC3B [1]; [12]): 90.7895
normalized FP signal, p62 LIR tracer displacement (LC3B [1]; log10 concentration [M] -5): 95
normalized FP signal, p62 LIR tracer displacement (LC3B [1]; [13]): 93.9474 and 101.579
normalized FP signal, p62 LIR tracer displacement (LC3B [1]; [14]): 91.0526
normalized FP signal, p62 LIR tracer displacement (LC3B [1]; [15]): 96.5789
normalized FP signal, p62 LIR tracer displacement (LC3B [1]; [16]): 94.2105 and 95.5263
normalized FP signal, p62 LIR tracer displacement (LC3B [1]; [17]): 96.3158 and 90.2632
normalized FP signal, p62 LIR tracer displacement (LC3B [1]; [18]): 96.5789
normalized FP signal, p62 LIR tracer displacement (LC3B [1]; [19]): 96.0526 and 95.2632
compound titration LC3B (displacement curve, FP signal) (LC3B [1]; [10]): 84.7368 and 89.4737
compound titration LC3B (displacement curve, FP signal) (LC3B [1]; [11]): 89.4737 and 89.2105
compound titration LC3B (displacement curve, FP signal) (LC3B [1]; [12]): 90.7895 and 93.1579
compound titration LC3B (displacement curve, FP signal) (LC3B [1]; log10 concentration [M] -5): 95 and 100.526
compound titration LC3B (displacement curve, FP signal) (LC3B [1]; [13]): 93.9474 and 101.579
compound titration LC3B (displacement curve, FP signal) (LC3B [1]; [14]): 91.0526
compound titration LC3B (displacement curve, FP signal) (LC3B [1]; [15]): 96.5789 and 94.4737
compound titration LC3B (displacement curve, FP signal) (LC3B [1]; [16]): 94.2105 and 95.5263
compound titration LC3B (displacement curve, FP signal) (LC3B [1]; [17]): 96.3158 and 90.2632
compound titration LC3B (displacement curve, FP signal) (LC3B [1]; [18]): 93.1579 and 96.5789
compound titration LC3B (displacement curve, FP signal) (LC3B [1]; [19]): 96.0526 and 95.2632
Initial Fluorescence (LC3A [2]; compound 15.2588 nM titrated against LC3A): 5485.239 and 8498.012
Initial Fluorescence (LC3A [2]; compound 30.5176 nM titrated against LC3A): 4967.649 and 8590.938
Initial Fluorescence (LC3A [2]; compound 61.0352 nM titrated against LC3A): 3893.892 and 7432.185
Initial Fluorescence (LC3A [2]; compound 122.07 nM titrated against LC3A): 3715.765 and 5942.313
Initial Fluorescence (LC3A [2]; compound 244.141 nM titrated against LC3A): 3805.917 and 4785.866
Initial Fluorescence (LC3A [2]; compound 488.281 nM titrated against LC3A): 2784.925 and 3093.111
Initial Fluorescence (LC3A [2]; compound 976.562 nM titrated against LC3A): 3008.559 and 2759.079
Initial Fluorescence (LC3A [2]; compound 1953.12 nM titrated against LC3A): 2614.532 and 2461.361
Initial Fluorescence (LC3A [2]; compound 3906.25 nM titrated against LC3A): 2609.726 and 2127.302
Initial Fluorescence (LC3A [2]; compound 7812.5 nM titrated against LC3A): 2627.775 and 2205.232
Initial Fluorescence (LC3A [2]; compound 15625 nM titrated against LC3A): 2084.943 and 1892.122
Initial Fluorescence (LC3A [2]; compound 31250 nM titrated against LC3A): 1913.624 and 1771.147
Initial Fluorescence (LC3A [2]; compound 62500 nM titrated against LC3A): 1934.175 and 2136.348
Initial Fluorescence (LC3A [2]; compound 125000 nM titrated against LC3A): 2010.201 and 1874.865
Initial Fluorescence (LC3A [2]; compound 250000 nM titrated against LC3A): 1863.832 and 1842.946
Initial Fluorescence (LC3A [2]; compound 500000 nM titrated against LC3A): 1618.141 and 1654.997
displacement of dye-linked tracer by parent compound (LC3A [3]): no displacement
interaction with LC3/GABARAP family members in FP displacement assay [4]: weak interaction of 10O5 (4) with GABARAP family members
normalized FP signal, p62 LIR tracer displacement (LC3A [5]; [10]): 89.4737
normalized FP signal, p62 LIR tracer displacement (LC3A [5]; log10 concentration [M] -3.82391, listed as 10O5): 75.5263
normalized FP signal, p62 LIR tracer displacement (LC3A [5]; log10 concentration [M] -4.1549, listed as 10O5): 82.8947 and 95
normalized FP signal, p62 LIR tracer displacement (LC3A [5]; [12]): 100.526
normalized FP signal, p62 LIR tracer displacement (LC3A [5]; log10 concentration [M] -4.60206, listed as 10O5): 87.3684
normalized FP signal, p62 LIR tracer displacement (LC3A [5]; log10 concentration [M] -5): 94.4737
normalized FP signal, p62 LIR tracer displacement (LC3A [5]; log10 concentration [M] -5, listed as 10O5): 88.6842
normalized FP signal, p62 LIR tracer displacement (LC3A [5]; [13]): 95.7895
normalized FP signal, p62 LIR tracer displacement (LC3A [5]; log10 concentration [M] -5.69897, listed as 10O5): 88.1579 and 98.6842
normalized FP signal, p62 LIR tracer displacement (LC3A [5]; [15]): 93.1579
normalized FP signal, p62 LIR tracer displacement (LC3A [5]; log10 concentration [M] -6.22185, listed as 10O5): 102.368
normalized FP signal, p62 LIR tracer displacement (LC3A [5]; log10 concentration [M] -6.69897, listed as 10O5): 99.4737 and 97.6316
normalized FP signal, p62 LIR tracer displacement (LC3A [5]; log10 concentration [M] -7.30103, listed as 10O5): 97.6316 and 100
normalized FP signal, p62 LIR tracer displacement (LC3A [5]; log10 concentration [M] -7.79588, listed as 10O5): 98.6842 and 98.1579
normalized FP signal, p62 LIR tracer displacement (LC3A [5]; log10 concentration [M] -8.08092, listed as 10O5): 98.9474 and 105.263
compound titration LC3A (displacement curve, FP signal) (LC3A [5]; log10 concentration [M] -5.30103, two replicate columns per compound): 95.7895
NanoBRET signal / tracer displacement [6]: No displacement
NanoBRET signal / tracer displacement [7]: No displacement
displacement of dye-linked tracer by parent compound (LC3B [8]): no displacement
viability at 20 µM ([9]; log concentration [M] -4.69897): 104%
Cell viability ([9]; log concentration [M] -4.69897): 92.5568
viability at 7.5 µM ([9]; log concentration [M] -5.12494): 94.8%
Cell viability ([9]; log concentration [M] -5.12494): 95.6466
viability at 2.5 µM ([9]; log concentration [M] -5.60206): 94.2%
Cell viability ([9]; log concentration [M] -5.60206): 97.1871
viability at […] ([9]; log concentration [M] -6.00436): 95.7%
Cell viability ([9]; log concentration [M] -6.00436): 90.9151
viability at 0.3 µM ([9]; log concentration [M] -6.52288): 104%
Cell viability ([9]; log concentration [M] -6.52288): 93.3208
viability at 0.125 µM ([9]; log concentration [M] -6.90309): 101%
Cell viability ([9]; log concentration [M] -6.90309): 92.1984
viability at 0.05 µM ([9]; log concentration [M] -7.30103): 103%
Cell viability ([9]; log concentration [M] -7.30103): 94.2945
viability at 0.01625 µM ([9]; log concentration [M] -7.78915): 101%
Cell viability ([9]; log concentration [M] -7.78915): 89.5849
viability at […] ([9]; log concentration [M] -8.06399): 103%
Cell viability ([9]; log concentration [M] -8.06399): 99.4914
viability at 0.005 µM ([9]; log concentration [M] -8.30103): 99.7%
Cell viability ([9]; log concentration [M] -8.30103): 88.3293
viability at 0.0021 µM ([9]; log concentration [M] -8.67778): 100%
Cell viability ([9]; log concentration [M] -8.67778): 90.0519
